Measured values: ChEMBL document CHEMBL5149992, “Discovery, Optimization, and Evaluation of Quinazolinone Derivatives with Novel Linkers as Orally Efficacious Phosphoinositide-3-Kinase Delta Inhibitors for Treatment of Inflammatory Diseases” (J Med Chem, 2021)
Activity calls are given as the source filed them. The rule behind the calls is not given here.

How the values were obtained:
in vitro = settings: human, liver microsomes
L02 = assay: Cytotoxicity against human L02 cells assessed as reduction in cell viability incubated for 72 hrs by CCK-8 assay; assay type: toxicity, cell-based; settings: l02, 72 h
[1] = AUC in Sprague-Dawley rat at 5 mg/kg, po incubated for 5 to 24 hrs by LC-MS/MS analysis; assay type: ADME, organism-based; set-up: dose 5 mg/kg, time upper 24 hrs, time lower 5 hrs, route po; settings: in vivo
[2] = target: T1, Phosphatidylinositol 4,5-bisphosphate 3-kinase catalytic subunit delta isoform (Homo sapiens, UniProt O00329); assay: Inhibition of PI3Kdelta (unknown origin)
T1 sequence (O00329 whole entry): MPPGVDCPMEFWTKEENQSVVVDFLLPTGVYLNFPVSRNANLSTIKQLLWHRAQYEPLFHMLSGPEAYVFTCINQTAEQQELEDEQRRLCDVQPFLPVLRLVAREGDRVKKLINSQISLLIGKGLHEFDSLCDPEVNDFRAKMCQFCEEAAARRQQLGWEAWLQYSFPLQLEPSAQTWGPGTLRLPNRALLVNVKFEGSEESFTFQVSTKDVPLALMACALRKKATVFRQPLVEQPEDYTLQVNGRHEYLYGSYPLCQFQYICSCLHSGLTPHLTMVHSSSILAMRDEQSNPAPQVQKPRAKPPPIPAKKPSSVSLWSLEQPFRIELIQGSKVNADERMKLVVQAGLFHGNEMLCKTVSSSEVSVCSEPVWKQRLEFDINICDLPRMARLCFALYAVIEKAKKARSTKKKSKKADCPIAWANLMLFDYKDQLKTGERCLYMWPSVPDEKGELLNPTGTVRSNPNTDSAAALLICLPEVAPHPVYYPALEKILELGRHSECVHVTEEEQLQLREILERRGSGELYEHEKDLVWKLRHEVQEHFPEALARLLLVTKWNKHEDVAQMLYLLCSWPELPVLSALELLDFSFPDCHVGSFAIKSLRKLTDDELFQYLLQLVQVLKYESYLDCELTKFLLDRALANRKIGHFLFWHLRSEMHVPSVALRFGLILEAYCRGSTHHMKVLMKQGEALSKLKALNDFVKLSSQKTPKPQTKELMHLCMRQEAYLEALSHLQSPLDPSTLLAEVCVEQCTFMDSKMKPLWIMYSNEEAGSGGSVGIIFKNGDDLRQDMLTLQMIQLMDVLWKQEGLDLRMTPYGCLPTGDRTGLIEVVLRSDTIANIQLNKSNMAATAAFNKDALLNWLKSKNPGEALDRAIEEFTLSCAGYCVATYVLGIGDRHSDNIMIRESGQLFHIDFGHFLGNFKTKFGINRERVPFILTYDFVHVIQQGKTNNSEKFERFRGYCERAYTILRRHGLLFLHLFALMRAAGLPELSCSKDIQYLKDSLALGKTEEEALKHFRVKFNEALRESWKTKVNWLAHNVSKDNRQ

[3] = target: T2, Phosphatidylinositol 4,5-bisphosphate 3-kinase catalytic subunit alpha isoform (Homo sapiens, UniProt P42336); assay: Inhibition of PI3Kalpha (unknown origin)
Mus musculus [4] = assay: Antiarthritic activity against collagen-induced arthritis DBA1/J mouse model assessed as paw swelling of forelimb at 5 to 20 mg/kg, po measured on day 27; assay type: functional, organism-based; settings: dose 5-20 mg/kg, time 27.0 day
Mus musculus [5] = assay: Antiarthritic activity against collagen-induced arthritis DBA1/J mouse model assessed as signs of inflammation at 20 mg/kg, po measured after 24 hrs by H and E staining based analysis; assay type: functional, organism-based
Mus musculus [6] = assay: Antiarthritic activity against collagen-induced arthritis DBA1/J mouse model assessed as destruction of cartilage at 20 mg/kg, po measured after 24 hrs by Safranin-O staining based microscopic analysis; assay type: functional, organism-based
[7] = Tmax in Sprague-Dawley rat at 5 mg/kg, po incubated for 5 to 24 hrs by LC-MS/MS analysis; assay type: ADME, organism-based; settings: in vivo, time 5-24 hrs
[8] = Volume of distribution at steady state in Sprague-Dawley rat at 5 mg/kg, po incubated for 5 to 24 hrs by LC-MS/MS analysis; assay type: ADME, organism-based; settings: in vivo, time 5-24 hrs
[9] = MRT in Sprague-Dawley rat at 5 mg/kg, iv incubated for 5 to 24 hrs by LC-MS/MS analysis; assay type: ADME, organism-based; settings: in vivo, time 5-24 hrs
[10] = target: T3, Phosphatidylinositol 4,5-bisphosphate 3-kinase catalytic subunit beta isoform (Homo sapiens, UniProt P42338); assay: Inhibition of PI3Kbeta (unknown origin)
[11] = target: T2, Phosphatidylinositol 4,5-bisphosphate 3-kinase catalytic subunit alpha isoform; assay: Inhibition of PI3Kalpha in human SK-OV-3 cells assessed as reduction in AKT phosphorylation at S473 residue incubated for 30 mins; assay type: cell-based
[12] = Elimination half life in Sprague-Dawley rat at 5 mg/kg, po incubated for 5 to 24 hrs by LC-MS/MS analysis; assay type: ADME, organism-based; settings: in vivo, time 5-24 hrs, read-out: beta t1/2 (converted)
Mus musculus [13] = assay: Antiarthritic activity in collagen-induced rheumatoid arthritis po dosed DBA1/J mouse model assessed as reduction in disease severity measured once daily for 24 to 27 days; assay type: functional, organism-based; settings: dose 5-20 mg/kg, time 24-27 day, DDE = dose-dependent effect
[14] = Oral bioavailability Sprague-Dawley rat at 5 mg/kg incubated for 5 to 24 hrs by LC-MS/MS analysis; assay type: ADME, organism-based; settings: in vivo, time 5-24 hrs
[15] = target: Phosphatidylinositol 4,5-bisphosphate 3-kinase catalytic subunit gamma isoform (Mus musculus, UniProt Q9JHG7); assay: Inhibition of PI3Kgamma in c5a-stimulated mouse RAW264.7 cells assessed as reduction in AKT phosphorylation at S473 residue incubated for 30 mins; assay type: cell-based
[16] = target: T3, Phosphatidylinositol 4,5-bisphosphate 3-kinase catalytic subunit beta isoform; assay: Inhibition of PI3Kbeta in human 786-0 cells assessed as reduction in AKT phosphorylation at S473 residue incubated for 30 mins; assay type: cell-based
[17] = target: T1, Phosphatidylinositol 4,5-bisphosphate 3-kinase catalytic subunit delta isoform; assay: Inhibition of PI3Kdelta in anti-IgM-stimulated human Raji cells assessed as reduction in AKT phosphorylation at S473 residue incubated for 30 mins; assay type: cell-based
[18] = target: T1, Phosphatidylinositol 4,5-bisphosphate 3-kinase catalytic subunit delta isoform; assay: Inhibition of PI3Kdelta in anti-IgM-stimulated human whole blood B cell degranulation incubated for 60 mins by flow cytometry; assay type: tissue-based
[19] = Elimination half life in Sprague-Dawley rat at 5 mg/kg, iv incubated for 5 to 24 hrs by LC-MS/MS analysis; assay type: ADME, organism-based; settings: in vivo, time 5-24 hrs, read-out: beta t1/2 (converted)
[20] = MRT in Sprague-Dawley rat at 5 mg/kg, po incubated for 5 to 24 hrs by LC-MS/MS analysis; assay type: ADME, organism-based; settings: in vivo, time 5-24 hrs
[21] = Tmax in Sprague-Dawley rat at 5 mg/kg, iv incubated for 5 to 24 hrs by LC-MS/MS analysis; assay type: ADME, organism-based; settings: in vivo, time 5-24 hrs
L929 = assay: Cytotoxicity against mouse L929 cells assessed as reduction in cell viability incubated for 72 hrs by CCK-8 assay; assay type: toxicity, cell-based; settings: l929, 72 h
[22] = target: Phosphatidylinositol 4,5-bisphosphate 3-kinase catalytic subunit gamma isoform (Homo sapiens, UniProt P48736); assay: Inhibition of PI3Kgamma (unknown origin)
[23] = human, microsomes, 10 µM
HEK293 = assay: Cytotoxicity against HEK293 cells assessed as reduction in cell viability incubated for 72 hrs by CCK-8 assay; assay type: toxicity, cell-based; settings: human, hek293, 72 h
Mus musculus [24] = assay: Antiarthritic activity against collagen-induced arthritis DBA1/J mouse model assessed as paw swelling of hindlimb at 5 to 20 mg/kg, po measured on day 27; assay type: functional, organism-based; settings: dose 5-20 mg/kg, time 27.0 day
[25] = AUC in Sprague-Dawley rat at 5 mg/kg, iv incubated for 5 to 24 hrs by LC-MS/MS analysis; assay type: ADME, organism-based; set-up: time 5-24 hrs, dose 5 mg/kg, route iv; settings: in vivo
Mus musculus [26] = assay: Antiarthritic activity against collagen-induced arthritis DBA1/J mouse model assessed as bone erosion at 20 mg/kg, po measured after 24 hrs by H and E staining based analysis; assay type: functional, organism-based
H9c2 = assay: Cytotoxicity against rat H9c2 cells assessed as reduction in cell viability incubated for 72 hrs by CCK-8 assay; assay type: toxicity, cell-based; settings: h9c2, 72 h
[27] = Volume of distribution at steady state in Sprague-Dawley rat at 5 mg/kg, iv incubated for 5 to 24 hrs by LC-MS/MS analysis; assay type: ADME, organism-based; settings: in vivo, time 5-24 hrs, read-out: Vdss

T3 sequence (P42338 whole entry, canonical isoform): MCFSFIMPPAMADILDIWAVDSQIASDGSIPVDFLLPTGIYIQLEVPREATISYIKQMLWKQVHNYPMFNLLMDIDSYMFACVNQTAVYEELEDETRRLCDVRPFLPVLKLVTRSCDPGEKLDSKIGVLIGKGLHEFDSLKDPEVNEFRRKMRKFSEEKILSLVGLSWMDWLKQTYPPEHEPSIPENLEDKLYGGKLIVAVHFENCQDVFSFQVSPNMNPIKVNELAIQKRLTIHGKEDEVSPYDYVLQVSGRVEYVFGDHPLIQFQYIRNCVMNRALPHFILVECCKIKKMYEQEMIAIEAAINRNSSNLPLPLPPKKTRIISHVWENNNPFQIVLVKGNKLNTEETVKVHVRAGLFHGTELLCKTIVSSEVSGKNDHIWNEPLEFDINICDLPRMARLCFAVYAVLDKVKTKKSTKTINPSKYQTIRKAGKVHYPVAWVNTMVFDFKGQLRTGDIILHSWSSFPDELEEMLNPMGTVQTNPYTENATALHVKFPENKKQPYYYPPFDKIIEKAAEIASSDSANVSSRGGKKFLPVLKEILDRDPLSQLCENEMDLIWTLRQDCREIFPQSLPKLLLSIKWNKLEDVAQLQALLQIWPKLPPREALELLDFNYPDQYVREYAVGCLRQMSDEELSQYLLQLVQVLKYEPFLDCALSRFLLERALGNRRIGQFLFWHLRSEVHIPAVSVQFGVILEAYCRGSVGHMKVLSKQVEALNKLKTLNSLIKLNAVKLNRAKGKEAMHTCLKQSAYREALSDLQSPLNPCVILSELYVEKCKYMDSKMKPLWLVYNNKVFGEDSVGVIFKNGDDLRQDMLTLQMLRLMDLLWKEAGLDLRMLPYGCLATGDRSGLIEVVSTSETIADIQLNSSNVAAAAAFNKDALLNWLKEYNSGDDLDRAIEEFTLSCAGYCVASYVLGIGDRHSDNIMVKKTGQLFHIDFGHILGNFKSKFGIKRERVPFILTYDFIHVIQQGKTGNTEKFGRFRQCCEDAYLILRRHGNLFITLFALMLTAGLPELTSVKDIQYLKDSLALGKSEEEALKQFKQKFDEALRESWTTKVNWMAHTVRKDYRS
T2 sequence (P42336 whole entry, canonical isoform): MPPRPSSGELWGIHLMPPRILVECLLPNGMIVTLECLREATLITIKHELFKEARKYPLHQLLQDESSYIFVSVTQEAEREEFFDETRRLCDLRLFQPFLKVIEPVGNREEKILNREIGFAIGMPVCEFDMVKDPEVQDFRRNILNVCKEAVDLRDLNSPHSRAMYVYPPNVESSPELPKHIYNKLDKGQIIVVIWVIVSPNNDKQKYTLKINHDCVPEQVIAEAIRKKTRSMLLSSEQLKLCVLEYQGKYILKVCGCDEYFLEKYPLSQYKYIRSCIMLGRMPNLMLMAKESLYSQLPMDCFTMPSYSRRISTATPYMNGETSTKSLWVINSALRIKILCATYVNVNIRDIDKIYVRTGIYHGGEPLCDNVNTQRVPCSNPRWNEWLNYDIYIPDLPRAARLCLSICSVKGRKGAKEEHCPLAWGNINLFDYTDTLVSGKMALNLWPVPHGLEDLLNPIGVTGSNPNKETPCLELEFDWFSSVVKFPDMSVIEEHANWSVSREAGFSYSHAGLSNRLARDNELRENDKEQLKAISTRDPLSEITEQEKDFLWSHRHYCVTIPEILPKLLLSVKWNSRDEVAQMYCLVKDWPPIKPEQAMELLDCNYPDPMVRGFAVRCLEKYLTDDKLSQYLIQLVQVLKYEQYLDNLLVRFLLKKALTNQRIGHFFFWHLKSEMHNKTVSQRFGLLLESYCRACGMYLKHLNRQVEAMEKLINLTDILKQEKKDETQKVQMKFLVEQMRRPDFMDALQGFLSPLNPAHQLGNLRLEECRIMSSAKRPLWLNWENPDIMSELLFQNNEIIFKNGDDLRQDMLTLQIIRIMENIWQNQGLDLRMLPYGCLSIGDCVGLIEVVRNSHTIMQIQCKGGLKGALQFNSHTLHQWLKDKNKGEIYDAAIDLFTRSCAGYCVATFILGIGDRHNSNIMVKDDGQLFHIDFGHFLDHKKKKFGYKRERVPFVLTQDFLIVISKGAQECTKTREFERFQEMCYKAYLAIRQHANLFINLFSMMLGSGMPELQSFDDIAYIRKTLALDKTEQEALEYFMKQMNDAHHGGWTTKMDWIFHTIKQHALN
Phosphatidylinositol 4,5-bisphosphate 3-kinase catalytic subunit gamma isoform (Mus musculus, UniProt Q9JHG7), sequence (Q9JHG7 whole entry, canonical isoform): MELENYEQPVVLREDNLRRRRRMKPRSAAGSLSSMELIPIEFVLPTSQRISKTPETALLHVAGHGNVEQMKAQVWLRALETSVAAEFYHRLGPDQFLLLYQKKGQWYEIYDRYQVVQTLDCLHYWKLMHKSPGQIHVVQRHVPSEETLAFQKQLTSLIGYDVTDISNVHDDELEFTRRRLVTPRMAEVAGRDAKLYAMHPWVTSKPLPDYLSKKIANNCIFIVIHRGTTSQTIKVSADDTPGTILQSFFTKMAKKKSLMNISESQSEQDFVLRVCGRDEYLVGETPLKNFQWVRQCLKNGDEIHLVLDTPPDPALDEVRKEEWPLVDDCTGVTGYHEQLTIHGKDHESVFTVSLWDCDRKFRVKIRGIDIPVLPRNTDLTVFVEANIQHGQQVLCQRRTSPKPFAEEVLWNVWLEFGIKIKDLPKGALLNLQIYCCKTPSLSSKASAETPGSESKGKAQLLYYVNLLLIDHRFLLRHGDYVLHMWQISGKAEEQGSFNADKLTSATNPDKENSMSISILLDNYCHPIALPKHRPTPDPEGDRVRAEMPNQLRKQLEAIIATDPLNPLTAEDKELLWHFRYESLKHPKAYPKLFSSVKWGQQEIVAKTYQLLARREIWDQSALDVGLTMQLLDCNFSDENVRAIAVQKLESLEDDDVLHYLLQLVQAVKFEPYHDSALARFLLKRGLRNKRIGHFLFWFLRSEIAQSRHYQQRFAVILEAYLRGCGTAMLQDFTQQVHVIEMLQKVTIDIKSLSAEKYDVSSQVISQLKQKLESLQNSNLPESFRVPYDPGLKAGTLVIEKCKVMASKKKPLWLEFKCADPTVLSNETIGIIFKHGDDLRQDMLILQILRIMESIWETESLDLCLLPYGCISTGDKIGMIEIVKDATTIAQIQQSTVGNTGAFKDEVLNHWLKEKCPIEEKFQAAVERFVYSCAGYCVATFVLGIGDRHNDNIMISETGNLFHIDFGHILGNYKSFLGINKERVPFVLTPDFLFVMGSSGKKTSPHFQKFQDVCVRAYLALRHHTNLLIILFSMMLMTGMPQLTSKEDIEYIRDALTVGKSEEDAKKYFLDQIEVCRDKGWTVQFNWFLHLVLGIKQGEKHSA
Phosphatidylinositol 4,5-bisphosphate 3-kinase catalytic subunit gamma isoform (Homo sapiens, UniProt P48736), sequence (P48736 whole entry, canonical isoform): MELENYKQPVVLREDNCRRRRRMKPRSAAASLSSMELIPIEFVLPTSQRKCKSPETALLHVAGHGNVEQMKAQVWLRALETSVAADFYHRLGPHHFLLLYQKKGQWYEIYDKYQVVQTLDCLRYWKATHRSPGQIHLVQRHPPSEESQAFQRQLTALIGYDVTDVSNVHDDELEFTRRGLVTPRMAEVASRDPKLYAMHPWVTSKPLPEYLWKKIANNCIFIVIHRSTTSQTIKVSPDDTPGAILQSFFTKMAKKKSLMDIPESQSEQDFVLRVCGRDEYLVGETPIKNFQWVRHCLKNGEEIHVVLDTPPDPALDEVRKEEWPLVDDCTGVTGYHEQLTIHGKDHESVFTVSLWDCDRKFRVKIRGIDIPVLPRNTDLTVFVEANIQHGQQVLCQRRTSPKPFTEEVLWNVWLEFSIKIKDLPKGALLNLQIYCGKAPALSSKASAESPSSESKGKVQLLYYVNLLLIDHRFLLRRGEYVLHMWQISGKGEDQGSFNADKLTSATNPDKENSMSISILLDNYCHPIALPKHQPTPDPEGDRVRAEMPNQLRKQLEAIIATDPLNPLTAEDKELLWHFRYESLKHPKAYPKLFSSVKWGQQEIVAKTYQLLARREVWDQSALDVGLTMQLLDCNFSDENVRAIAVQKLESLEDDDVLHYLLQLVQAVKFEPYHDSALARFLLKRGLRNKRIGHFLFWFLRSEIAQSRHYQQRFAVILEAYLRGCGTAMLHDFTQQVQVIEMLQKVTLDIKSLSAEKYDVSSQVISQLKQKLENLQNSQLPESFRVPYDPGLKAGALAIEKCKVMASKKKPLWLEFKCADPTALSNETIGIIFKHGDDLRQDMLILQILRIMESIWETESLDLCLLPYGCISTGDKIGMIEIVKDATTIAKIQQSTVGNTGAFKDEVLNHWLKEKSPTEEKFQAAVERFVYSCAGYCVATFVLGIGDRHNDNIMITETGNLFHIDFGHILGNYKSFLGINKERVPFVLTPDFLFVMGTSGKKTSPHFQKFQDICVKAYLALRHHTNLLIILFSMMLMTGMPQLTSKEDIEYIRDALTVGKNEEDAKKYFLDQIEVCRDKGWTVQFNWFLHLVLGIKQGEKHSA

half-life at 60 h, 10 µM (in vitro): 4.44 h
AUC [1]: 4897.74 ng·h/mL
IC50 [2]: 14 nM
IC50 [3]: 4430 nM
Tmax [7]: 4.67 h
Vdss [8]: 9.1 L/kg
MRT [9]: 2.53 h
IC50 [10]: 375 nM
IC50 [11]: 4360 nM
half-life [12]: 2.06 h
F [14]: 89.9%
IC50 [15]: 571 nM
IC50 [16]: 943 nM
IC50 [17]: 24.7 nM
IC50 [18]: 100 nM
half-life [19]: 2 h
MRT [20]: 5.96 h
Tmax [21]: 4.8 min
IC50 [22]: 267 nM
CLH [23]: 5.2 mL/min/g
AUC [25]: 2110.52 ng·h/mL
Vd [27]: 7.16 L/kg
Structure (SMILES): C[C@H]1CC[C@@H](c2nc3cccc(Cl)c3c(=O)n2-c2cccc(F)c2)N1c1ncnc2[nH]cnc12
Activity (L02): Non-Toxic
Activity (Mus musculus [4]): Active
Activity (Mus musculus [5]): Active
Activity (Mus musculus [6]): Active
Activity (Mus musculus [13]): Dde
Activity (L929): Non-Toxic
Activity (HEK293): Non-Toxic
Activity (Mus musculus [24]): Active
Activity (Mus musculus [26]): Active
Activity (H9c2): Non-Toxic
